Assay results: PubChem BioAssay AID1963825 (Molecular Pharmacology Branch, DTP, NCI, 2024)

Assay: Anticancer human tumor 997537-175-T-J1-PDC patient-derived colon adenocarcinoma cell line growth inhibition [POLQ]
Conditions: 997537-175-T-J1-PDC complex spheroid viability, combination with POLQ inhibitors; for IC50: curve of first compound; for viability, T/C: stronger effect = lower value
Outline: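 Three-cell-type spheroids modelling solid tumor plus stroma served as the readout system; POL inhibitors were tested individually and in combination, concentration ranges set by clinical Cmax where known.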

[1] = second compound 0.0316 µM, first compound 0.00316 µM
[2] = second compound 0.0316 µM, first compound 0.01 µM
[3] = second compound 0.0316 µM, first compound 0.0316 µM
[4] = second compound 0.0316 µM, first compound 0.1 µM
[5] = second compound 0.1 µM, first compound 0.00316 µM
[6] = second compound 0.1 µM, first compound 0.01 µM
[7] = second compound 0.1 µM, first compound 0.0316 µM
[8] = second compound 0.1 µM, first compound 0.1 µM
[9] = second compound 0.316 µM, first compound 0.00316 µM
[10] = second compound 0.316 µM, first compound 0.01 µM
[11] = second compound 0.316 µM, first compound 0.0316 µM
[12] = second compound 0.316 µM, first compound 0.1 µM
[13] = second compound 1 µM, first compound 0.00316 µM
[14] = second compound 1 µM, first compound 0.01 µM
[15] = second compound 1 µM, first compound 0.0316 µM
[16] = second compound 1 µM, first compound 0.1 µM
[17] = second compound 3.16 µM, first compound 0.00316 µM
[18] = second compound 3.16 µM, first compound 0.01 µM
[19] = second compound 3.16 µM, first compound 0.0316 µM
[20] = second compound 3.16 µM, first compound 0.1 µM
[21] = second compound 10 µM, first compound 0.00316 µM
[22] = second compound 10 µM, first compound 0.01 µM
[23] = second compound 10 µM, first compound 0.0316 µM
[24] = second compound 10 µM, first compound 0.1 µM
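Note: luminescence signal used as a surrogate for viable cells; spheroids exposed to drugs for seven days before readout.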

Structure (SMILES): COc1cccc(OCCCN)c1-c1cc(Nc2cnc(C#N)cn2)n[nH]1 + Nc1ccc(C#CCN(C(=O)Cc2ncc(C(F)(F)F)cc2C(F)(F)F)c2ccc(F)cc2)nn1
- IC50 (second compound 0.0316 µM): 110 nM
- IC50 (second compound 0.1 µM): 72 nM
- IC50 (second compound 0.316 µM): 54.4 nM
- IC50 (second compound 1 µM): 21.3 nM
- IC50 (second compound 3.16 µM): 48.8 nM
- IC50 (second compound 10 µM): 20.9 nM
- viability, T/C [1]: 100%
- viability, T/C [2]: 90.2%
- viability, T/C [3]: 70.5%
- viability, T/C [4]: 42.3%
- viability, T/C (second compound 0.0316 µM, first compound 0.316 µM): 44%
- viability, T/C (second compound 0.0316 µM, first compound 1 µM): 17.7%
- viability, T/C [5]: 89.1%
- viability, T/C [6]: 96.8%
- viability, T/C [7]: 70.5%
- viability, T/C [8]: 43%
- viability, T/C (second compound 0.1 µM, first compound 0.316 µM): 22.2%
- viability, T/C (second compound 0.1 µM, first compound 1 µM): 23.2%
- viability, T/C [9]: 103%
- viability, T/C [10]: 89.5%
- viability, T/C [11]: 61.4%
- viability, T/C [12]: 40.5%
- viability, T/C (second compound 0.316 µM, first compound 0.316 µM): 18%
- viability, T/C (second compound 0.316 µM, first compound 1 µM): 41.9%
- viability, T/C [13]: 89.8%
- viability, T/C [14]: 61.1%
- viability, T/C [15]: 50.3%
- viability, T/C [16]: 21.8%
- viability, T/C (second compound 1 µM, first compound 0.316 µM): 40.6%
- viability, T/C (second compound 1 µM, first compound 1 µM): 36.2%
- viability, T/C [17]: 88.4%
- viability, T/C [18]: 90.8%
- viability, T/C [19]: 65.8%
- viability, T/C [20]: 24.2%
- viability, T/C (second compound 3.16 µM, first compound 0.316 µM): 20.8%
- viability, T/C (second compound 3.16 µM, first compound 1 µM): 21.1%
- viability, T/C [21]: 84%
- viability, T/C [22]: 85.1%
- viability, T/C [23]: 30.4%
- viability, T/C [24]: 24.9%
- viability, T/C (second compound 10 µM, first compound 0.316 µM): 34.1%
- viability, T/C (second compound 10 µM, first compound 1 µM): 20.5%

Structure (SMILES): Cn1ncnc1[C@H]1c2n[nH]c(=O)c3cc(F)cc(c23)N[C@@H]1c1ccc(F)cc1 + Nc1ccc(C#CCN(C(=O)Cc2ncc(C(F)(F)F)cc2C(F)(F)F)c2ccc(F)cc2)nn1
- IC50 (second compound 0.0316 µM): > 100 nM
- IC50 (second compound 0.1 µM): > 100 nM
- IC50 (second compound 0.316 µM): > 100 nM
- IC50 (second compound 1 µM): > 100 nM
- IC50 (second compound 3.16 µM): > 100 nM
- IC50 (second compound 10 µM): > 100 nM
- viability, T/C (second compound 0.0316 µM, first compound 0.000316 µM): 98.8%
- viability, T/C (second compound 0.0316 µM, first compound 0.001 µM): 97.4%
- viability, T/C [1]: 104%
- viability, T/C [2]: 94.5%
- viability, T/C [3]: 98.1%
- viability, T/C [4]: 103%
- viability, T/C (second compound 0.1 µM, first compound 0.000316 µM): 103%
- viability, T/C (second compound 0.1 µM, first compound 0.001 µM): 114%
- viability, T/C [5]: 99.2%
- viability, T/C [6]: 104%
- viability, T/C [7]: 95.7%
- viability, T/C [8]: 99%
- viability, T/C (second compound 0.316 µM, first compound 0.000316 µM): 100%
- viability, T/C (second compound 0.316 µM, first compound 0.001 µM): 110%
- viability, T/C [9]: 95.6%
- viability, T/C [10]: 106%
- viability, T/C [11]: 95.3%
- viability, T/C [12]: 93.9%
- viability, T/C (second compound 1 µM, first compound 0.000316 µM): 105%
- viability, T/C (second compound 1 µM, first compound 0.001 µM): 90.5%
- viability, T/C [13]: 89.4%
- viability, T/C [14]: 99.4%
- viability, T/C [15]: 120%
- viability, T/C [16]: 90.5%
- viability, T/C (second compound 3.16 µM, first compound 0.000316 µM): 101%
- viability, T/C (second compound 3.16 µM, first compound 0.001 µM): 103%
- viability, T/C [17]: 86.4%
- viability, T/C [18]: 95.3%
- viability, T/C [19]: 104%
- viability, T/C [20]: 99.2%
- viability, T/C (second compound 10 µM, first compound 0.000316 µM): 95.4%
- viability, T/C (second compound 10 µM, first compound 0.001 µM): 102%
- viability, T/C [21]: 98.6%
- viability, T/C [22]: 91.3%
- viability, T/C [23]: 103%
- viability, T/C [24]: 106%
